The values below come from patent publication US9198420B2, “Rodenticidal norbormide analogues” (priority 2012, dated 2015).

Some results are limits rather than exact numbers.

For the first assay, the system named is rat caudal artery. The assay can be described thus: Rat caudal artery ring contractile force (vasoconstrictory activity). More on the design: species or system rat (male Wistar). The settings on record: Table 1, compound at 50 μM. The method, then:
Male Wistar rats (150-250 g) were obtained from Charles River Italia (Milano, Italy) and killed by decapitation. Ventral caudal artery was isolated, placed in Tyrode solution at room temperature and cleaned of extraneous fatty and connective tissue under a dissection microscope. All vessels were cut into rings 2 mm long, mounted on a custom-built plexiglass support by means of two intraluminal tungsten wires and placed in 20 mL double-jacketed organ baths filled with Tyrode solution of the following composition (mM): NaCl 125, KCl 5, CaCl2 2.7, MgSO4 1, KH2PO4 1.2, NaHCO3 25 and glucose 11, maintained at 37° C., pH 7.35, bubbled with 95% O2 and […]. The endothelium was removed by gently rubbing the lumen of the rings with a very thin rough-surfaced tungsten wire (caudal artery). The mechanical activity of the rings was detected by means of an isometric force transducer (Ugo Basile, Comerio, Italy) coupled to a pen recorder (Ugo Basile, Comerio, Italy). Rings were passively stretched to impose a resting tension (2 g) and were allowed to equilibrate for 60 min. After equilibration, each ring was repeatedly simulated with both KCl (90 mM) and phenylephrine (10 μM) until reproducible responses were obtained. To verify the absence of the endothelium, rings contracted with 1 μM phenylephrine were exposed to […] carbamylcholine. […] Each compound was tested for the vasoconstrictor activity at a concentration of 50 μM, which has been previously reported to be the one evoking the maximal response to norbormide. The contractile responses to the compounds were expressed as percent of the 90 mM KCl response.
`COc1ccccc1C(=O)OCCN1C(=O)C2C3C=C(C(O)(c4ccccc4)c4ccccn4)C(C3=C(c3ccccc3)c3ccccn3)C2C1=O` (stereo not drawn) [Compound 114, 5-(α-Hydroxy-α-2-pyridylbenzyl)-N-2′-o-methoxybenzoyloxyethyl-7-(α-2-pyridylbenzylidene)-5-norbornene-2,3-dicarboximide]: the “Vasoconstriction: maximum contractile effect as a % of 90 mM KCl contraction” value is recorded as “≧132%”.

`Cc1ccc(C=CC(=O)OCCN2C(=O)C3C4C=C(C(O)(c5ccccc5)c5ccccn5)C(C4=C(c4ccccc4)c4ccccn4)C3C2=O)cc1` (stereo not shown) [Compound 128]: the “Vasoconstriction: maximum contractile effect as a % of 90 mM KCl contraction” value is 42%.

As for `O=C(/C=C/C=C/c1ccccc1)OCCN1C(=O)C2C3C=C(C(O)(c4ccccc4)c4ccccn4)C(C3=C(c3ccccc3)c3ccccn3)C2C1=O` (stereo not drawn) [Compound 187, 5-(α-Hydroxy-α-2-pyridylbenzyl)-N-[2′-(5″-phenyl-2″E,4″E-pentadienoyloxy)ethyl]-7-(α-2-pyridylbenzylidene)-5-norbornene-2,3-dicarboximide], the “Vasoconstriction: maximum contractile effect as a % of 90 mM KCl contraction” value is given as 0%. In the case of `COc1cccc(C(=O)OCCN2C(=O)C3C4C=C(C(O)(c5ccccc5)c5ccccn5)C(C4=C(c4ccccc4)c4ccccn4)C3C2=O)c1` (stereo not drawn) [Compound 115, 5-(α-Hydroxy-α-2-pyridylbenzyl)-N-2′-m-methoxybenzoyloxyethyl-7-(α-2-pyridylbenzylidene)-5-norbornene-2,3-dicarboximide], the “Vasoconstriction: maximum contractile effect as a % of 90 mM KCl contraction” value was determined as 52%.

In the case of `CCCC(=O)OCCN1C(=O)C2C3C=C(C(O)(c4ccccc4)c4ccccn4)C(C3=C(c3ccccc3)c3ccccn3)C2C1=O` (stereo not drawn) [Compound 110, N-2′-Butanoyloxyethyl-5-(α-hydroxy-α-2-pyridylbenzyl)-7-(α-2-pyridylbenzylidene)-5-norbornene-2,3-dicarboximide], the “Vasoconstriction: maximum contractile effect as a % of 90 mM KCl contraction” value is “≧132%”.

Regarding `COc1ccc(C=CC(=O)OCCN2C(=O)C3C4C=C(C(O)(c5ccccc5)c5ccccn5)C(C4=C(c4ccccc4)c4ccccn4)C3C2=O)cc1OC` (stereo not shown) [Compound 132], the “Vasoconstriction: maximum contractile effect as a % of 90 mM KCl contraction” value came to 120%. With `O=C(CCc1ccccc1)OCCN1C(=O)C2C3C=C(C(O)(c4ccccc4)c4ccccn4)C(C3=C(c3ccccc3)c3ccccn3)C2C1=O` (stereo not drawn) [Compound 119, N-2′-Dihydrocinnamoyloxyethyl-5-(α-hydroxy-α-2-pyridylbenzyl)-7-(α-2-pyridylbenzylidene)-5-norbornene-2,3-dicarboximide], the “Vasoconstriction: maximum contractile effect as a % of 90 mM KCl contraction” value is reported as “≧132%”. The same measure, in the same setting: the value for `O=C(CCC(=O)Oc1ccccc1)OCCN1C(=O)C2C3C=C(C(O)(c4ccccc4)c4ccccn4)C(C3=C(c3ccccc3)c3ccccn3)C2C1=O` (stereo not drawn) [Compound 204, 5-(α-Hydroxy-α-2-pyridylbenzyl)-N-2′-(monophenyl)succinoyloxyethyl-7-(α-2-pyridylbenzylidene)-5-norbornene-2,3-dicarboximide] was 0%. `COc1ccc(C(=O)OCCN2C(=O)C3C4C=C(C(O)(c5ccccc5)c5ccccn5)C(C4=C(c4ccccc4)c4ccccn4)C3C2=O)cc1` (stereo not drawn) [Compound 116, 5-(α-Hydroxy-α-2-pyridylbenzyl)-N-2′-p-methoxybenzoyloxyethyl-7-(α-2-pyridylbenzylidene)-5-norbornene-2,3-dicarboximide]: the “Vasoconstriction: maximum contractile effect as a % of 90 mM KCl contraction” value was “≧132%”. The same measure, in the same setting: the value for `O=C(Cc1ccccc1)OCCN1C(=O)C2C3C=C(C(O)(c4ccccc4)c4ccccn4)C(C3=C(c3ccccc3)c3ccccn3)C2C1=O` (stereo not drawn) [Compound 117, 5-(α-Hydroxy-α-2-pyridylbenzyl)-N-2′-phenylacetyloxyethyl-7-(α-2-pyridylbenzylidene)-5-norbornene-2,3-dicarboximide] was “≧132%”; that for `CC(C)(C)C(=O)OCCN1C(=O)C2C3C=C(C(O)(c4ccccc4)c4ccccn4)C(C3=C(c3ccccc3)c3ccccn3)C2C1=O` (stereo not drawn) [Compound 109, 5-(α-Hydroxy-α-2-pyridylbenzyl)-N-2′-pivaloyloxyethyl-7-(α-2-pyridylbenzylidene)-5-norbornene-2,3-dicarboximide] was “≧132%”; that for `CN(C)c1ccc(C=CC(=O)OCCN2C(=O)C3C4C=C(C(O)(c5ccccc5)c5ccccn5)C(C4=C(c4ccccc4)c4ccccn4)C3C2=O)cc1` (stereo not shown) [Compound 131] was 30%. Still for that read-out and setting: to `COc1cccc(C=CC(=O)OCCN2C(=O)C3C4C=C(C(O)(c5ccccc5)c5ccccn5)C(C4=C(c4ccccc4)c4ccccn4)C3C2=O)c1` (stereo not drawn) [Compound 125, 5-(α-1-hydroxy-α-2-pyridylbenzyl)-N-[2′-(3″-methoxycinnamoyloxy)ethyl]-7-(α-2-pyridylbenzylidene)-5-norbornene-2,3-dicarboximide] belongs 80%; to `O=C(C=Cc1ccc2ccccc2c1)OCCN1C(=O)C2C3C=C(C(O)(c4ccccc4)c4ccccn4)C(C3=C(c3ccccc3)c3ccccn3)C2C1=O` (stereo not drawn) [Compound 188, 5-(α-Hydroxy-α-2-pyridylbenzyl)-N-[2′-(2″-naphthylacryloyloxy)ethyl]-7-(α-2-pyridylbenzylidene)-5-norbornene-2,3-dicarboximide], 0%.

The assay is the same for the next values; noted with them: Table 1, read-out: Vasoconstriction: maximum contractile effect as a % of 90 mM KCl contraction.
Regarding `CCCCCCCCCCCC(=O)OCN1C(=O)C2C3C=C(C(O)(c4ccccc4)c4ccccn4)C(C3=C(c3ccccc3)c3ccccn3)C2C1=O` (stereo not drawn) [Compound 11, N-Dodecanoyloxymethyl-5-(α-hydroxy-α-2-pyridylbenzyl)-7-(α-2-pyridylbenzylidene)-5-norbornene-2,3-dicarboximide], the Emax was determined as 0%. As to `O=C(OCOCCN1C(=O)C2C3C=C(C(O)(c4ccccc4)c4ccccn4)C(C3=C(c3ccccc3)c3ccccn3)C2C1=O)C(c1ccccc1)c1ccccc1` (stereo not drawn) [Compound 201, N-[2′-(Diphenylacetyloxymethyloxy)ethyl]-5-(α-hydroxy-α-2-pyridylbenzyl)-7-(α-2-pyridylbenzylidene)-5-norbornene-2,3-dicarboximide], the Emax is ≥ 132%.

Staying with this assay, now noted: Table 2, compound at 50 μM.
Consider `O=C(C=Cc1ccccc1)NCCN1C(=O)C2C3C=C(C(O)(c4ccccc4)c4ccccn4)C(C3=C(c3ccccc3)c3ccccn3)C2C1=O` (stereo not drawn) [Compound 365, N-2′-Cinnamamidoethyl-5-(α-hydroxy-α-2-pyridylbenzyl)-7-(α-2-pyridylbenzylidene)-5-norbornene-2,3-dicarboximide], for which the “Vasoconstriction: maximum contractile effect as a % of 90 mM KCl contraction” value is reported as 43%.

The assay is the same for the next values; noted with them: Table 4, pre-cleavage, n = 3.
Turning to `CCCCCCCCCCCC(=O)OCN1C(=O)C2C3C=C(C(O)(c4ccccc4)c4ccccn4)C(C3=C(c3ccccc3)c3ccccn3)C2C1=O` (stereo not drawn) [Compound 11, N-Dodecanoyloxymethyl-5-(α-hydroxy-α-2-pyridylbenzyl)-7-(α-2-pyridylbenzylidene)-5-norbornene-2,3-dicarboximide], the “Vasoconstriction: maximum contractile effect as a % of 90 mM KCl contraction” value was determined as 0%.

The same assay, now with this note: Table 7, compounds of formula (V).
Regarding `CC(O)CN1C(=O)C2C3C=C(C(O)(c4ccccc4)c4ccccn4)C(C3=C(c3ccccc3)c3ccccn3)C2C1=O` (stereo not drawn) [Compound 103, N-2′-Hydroxypropyl-5-(α-hydroxy-α-2-pyridylbenzyl)-7-(α-2-pyridylbenzylidene)-5-norbornene-2,3-dicarboximide], the “Vasoconstriction: maximum contractile effect as a % of 90 mM KCl contraction” value is 67%. On the same count and under the same terms, the value for `O=C1C2C3C=C(C(O)(c4ccccc4)c4ccccn4)C(C3=C(c3ccccc3)c3ccccn3)C2C(=O)N1CCCCO` (stereo not drawn) [Compound 105, N-4′-Hydroxybutyl-5-(α-hydroxy-α-2-pyridylbenzyl)-7-(α-2-pyridylbenzylidene)-5-norbornene-2,3-dicarboximide] was 100%.

The same assay, now with this note: n = 3, Table 8.
On to `CC(O)CN1C(=O)C2C3C=C(C(O)(c4ccccc4)c4ccccn4)C(C3=C(c3ccccc3)c3ccccn3)C2C1=O` (stereo not drawn) [Compound 103, N-2′-Hydroxypropyl-5-(α-hydroxy-α-2-pyridylbenzyl)-7-(α-2-pyridylbenzylidene)-5-norbornene-2,3-dicarboximide], for which the “Vasoconstriction: maximum contractile effect as a % of 90 mM KCl contraction” value was determined as 67%. On to `O=C1C2C3C=C(C(O)(c4ccccc4)c4ccccn4)C(C3=C(c3ccccc3)c3ccccn3)C2C(=O)N1CCCCO` (stereo not drawn) [Compound 105, N-4′-Hydroxybutyl-5-(α-hydroxy-α-2-pyridylbenzyl)-7-(α-2-pyridylbenzylidene)-5-norbornene-2,3-dicarboximide], for which the “Vasoconstriction: maximum contractile effect as a % of 90 mM KCl contraction” value came out at 100%.
